# Data from patent US20120028359A1, “PRODUCTION PROCESS OF GENDER-SPECIFIC SERUM AND BIOMARKER USING THE SERUM” (priority 2009, published 2012).
# What was measured:
# myotube formed cells = experiment: Lipid accumulation in myotube formed cells treated with hormone; format: cell-based; conditions: DMEM (phenol-red (−))/10% FBS, hormone for about 2 weeks; FIG. 5
# Source text: Then, lipid accumulation levels of the cells were confirmed.
# bovine MSCs = experiment: MSC proliferation, cells enumerated with hematocytometer; format: cell-based; conditions: MSC in C-MS or CDFBS, 10 nM hormone, vs respective control
# Method: The cultured cells were harvested by trypsin-EDTA, and subcultured in wells of 6-well plates with DMEM supplemented with FBS after washing the collected cell precipitate. Cells were cultured for a day in the supplemented medium to allow for equal attachment in the culture dish. The next day the medium was removed and replaced with DMEM supplemented with 10% FBS, MS, FS and C-MS.
# MSCs were cultured in DMEM supplemented with C-MS to observe the steroidal effect on the cultured muscle cells. E2, testosterone, or a combination of E2 and testosterone (all 10 nM) were added directly to each medium. Cells were enumerated under microscopic examination using a hematocytometer.
# For MSC differentiation, cells were collected from a primary culture dish and subcultured. The cells in passage one were cultured in medium supplemented with FBS, MS, FS, or […] for three days, and cell numbers in each culture were enumerated.
# MSC were subcultured in C-MS or CDFBS and treated with 10 nM of E2 or testosterone, or a combination of E2 and testosterone.
# C2C12 myoblast cell line = experiment: C2C12 myoblast proliferation; format: cell-based; conditions: testosterone-treated C-MS and CDFBS
# Source text: In addition, the effect of different serum and steroids on the C2Cl2 myoblast cell line was also observed. The data generated were in agreement with those of bovine MSCs.
# Myogenin = experiment: Real-time RT-PCR, myogenin mRNA; format: cell-based, bovine; conditions: hormone treatment, 10 nM, C-MS medium; FIG. 13
# Method: (§1) Trizor™ reagent (Invitrogen) was used to extract total RNA from cells, according to the manufacturer's protocol. RNA was […] in diethylpyrocarbonate-treated water at −80° C. Concentrations of the extracted RNA samples were measured using an ND-100 spectrophotometer (NanoDrop Technologies, Wilmington, Del., USA) and the purity was checked with an Agilent 2100 bioanalyzer (Agilent Technologies, Palo Alto, Calif., USA) prior to RT-PCR. RNA was reverse-transcribed into the first stranded cDNA using Superscript-II reverse transcriptase (Invitrogen). Total RNA (1 μg in 20 μl total volume) was primed with oligo (dT) 20 primers (Bioneer, Daejeon, Korea), and reverse transcription was carried out at 42° C. for 50 min and 72° C. for 15 min. Subsequently, 2 μl of the 10× diluted cDNA product and 10 pmoles of each gene-specific primer were used to perform PCR using a 7500 real-time PCR system (Applied Biosystems, Foster City, Calif., USA). Power SYBR® Green PCR Master Mix (Applied Biosystems) was used as the fluorescence source. Primers were designed with Primer 3 software (http://frodo.wi.mit.edu) using sequence information listed at the National Center for Biotechnology Information. […]
# AR = experiment: Real-time RT-PCR, AR mRNA; format: cell-based, bovine; conditions: hormone treatment, 10 nM, C-MS medium; FIG. 13
# Method: as §1
# isolated MSCs = experiment: Lipid droplets (ORO) in MSCs in adipogenic medium with C-MS plus hormone; format: cell-based, bovine; conditions: hormone-treated vs untreated, FIGS. 17 and 18
# Method: The cells were cultured in adiopogenic medium treated with E2, testosterone, or E2 and testosterone. The cells were stained with ORO to check the accumulation of lipid droplets.
# FAT/CD36 [1] = experiment: Real-time RT-PCR, FAT/CD36 mRNA in adipogenic medium; format: cell-based, bovine; conditions: adipogenic medium with C-MS, hormone-treated; FIG. 19
# Method: as §1
# FAT/CD36 [2] = experiment: Immunocytochemistry, FAT/CD36 protein in adipogenic medium; format: cell-based, bovine; conditions: adipogenic medium with C-MS, hormone-treated; FIG. 20
# Method: Isolated MSCs were cultured in a covered glass-bottom dish and allowed to differentiate into myotubes or to transdifferentiate into ALCs under different serum conditions. Then, the culture mediun was removed and cells were rinsed with PBS. PBS rinsing was also performed between all subsequent steps. Cells were fixed with 4% formaldehyde, permeabilized by 0.2% Triton X-100 and 3-4 drops of Image-iT™ FX signal enhancer (Invitrogen) was applied. Primary antibody (mouse monoclonal IgG1 Myogenin; sc-12732, rabbit polyclonal IgG CD36 sc-9154; Santa Cruz Biotechnology, Santa Cruz Calif., USA) was added and incubated at 4° C. in a humid environment overnight, and then incubated with secondary antibody (Alexa Fluor 488 goat anti-mouse SFX kit and Alexa Fluor 488 goat anti-rabbit SFX kit; Molecular Probes, Eugene, Oreg., USA) at room temperature for 1 hour. Each cell nucleus was counterstained by […] (DAPI; Sigma-Aldrich, St. Louis Mo., USA). Immunostained cells were observed using a fluorescence microscope (Nikon).
# MSCs were transdifferentiated into ALCs by switching the culture medium into adipogenic medium. To observe the effect of different sera on transdifferentiation, cells were cultured in adipogenic media supplemented with different sera for 7 days and stained with ORO. […]
Compound,lipid accumulation level in myotube (myotube formed cells),increment of cell proliferation (bovine MSCs),C2C12 cell proliferation (C2C12 myoblast cell line),myogenin expression (Myogenin),AR expression (AR),"lipid droplets, ORO staining (isolated MSCs)",FAT/CD36 mRNA expression (FAT/CD36 [1]),FAT/CD36 protein expression (FAT/CD36 [2])
C[C@]12CC[C@H]3[C@@H](CCC4=CC(=O)CC[C@@]43C)[C@@H]1CC[C@@H]2O [testosterone],"highest in myotube of the cells treated with 17β-estradiol, and decreases in the following order of [17β-estradiol+testosterone], testosterone, and the control group that was not treated with hormone","highest in the testosterone-treated culture followed by the combination E2 and testosterone, and E2 only",markedly increased,up-regulated myogenin and AR expression significantly,up-regulated myogenin and AR expression significantly,slight increase,–,–
"C[C@]12CC[C@@H]3c4ccc(O)cc4CC[C@H]3[C@@H]1CC[C@@H]2O [E2, 17β-estradiol]","highest in myotube of the cells treated with 17β-estradiol, and decreases in the following order of [17β-estradiol+testosterone], testosterone, and the control group that was not treated with hormone","highest in the testosterone-treated culture followed by the combination E2 and testosterone, and E2 only",–,–,–,slight increase,significant increase,upregulated
